Assay results published in patent US20250346605A1, “NEW DERIVATIVES FOR TREATING TRPM3 MEDIATED DISORDERS” (Katholieke Universiteit Leuven, priority 2022, published 2025).

Molecular target: T1, mouse TRPM3α2 (mTRPM3) ion channel (Mus musculus, UniProt J9SQF3)
T1 construct: expressed in transfected cells; host or cells: Flp-In HEK293
Assay: TRPM3 ion channel driven Ca2+ uptake (Fluo-4 AM assay), PS-stimulated overexpressing HEK293 cells
Assay type: cell-based
Details: flip-in HEK293 overexpressing TRPM3, stimulated with Pregnenolone sulfate (PS) 50 μM, activity ranges A, B, C
Protocol: In order to monitor the inhibition of the mouse TRPM3α2 (mTRPM3) ion channel by the compounds of the invention, a cellular system making use of an mTRPM3alpha2 or hTRPM3 overexpressing cell line (flip-in HEK293) was used. The TRPM3 channel was stimulated/opened with Pregnenolone sulfate (PS) (50 μM) which results in Ca^2+ influx.
For mTRPM3, the intracellular Ca^2+ was measured with a Calcium responsive dye, Fluor-4 AMV ester (Invitrogen). Cells were cultured until a confluence of 80-90%, washed with Versene (Invitrogen) and detached from the surface by a short incubation with 0.05% Trypsin (Invitrogen). The trypsination process was stopped by the addition of complete cell culture medium (DMEM, glutamax, 10% FCS, NEAA, Pen-Strep). Cells were collected and resuspended in Krebs buffer without Calcium at RT.
Prior the cell seeding (±2000 cells/well into a black, 384 well plate (Greiner)) the diluted compound was added in the assay plate, together with the PS dissolved in Krebs buffer containing Calcium. […] Directly after cell addition the plates were read on an Envision fluorescence reader (Perkin Elmer) by an Excitation of 485 nm and emission at 535 nm.
Channel inhibition was calculated compared to a non-PS stimulated control versus a condition stimulated with PS (50 μM) with vehicle. The ability of the compounds of the invention to inhibit this activity was determined as: Percentage inhibition=[1-((RFU determined for sample with test compound present−RFU determined for sample with positive control inhibitor) divided by (RFU determined in the presence of vehicle−RFU determined for sample with positive control inhibitor))]*100.
The activities of the Example compounds tested are depicted in the table below. The activity ranges A, B and C refer to IC50 values in the Fluo-4 AM assay as follows: “A”: IC50<1 μM; “B”: 1 μM≤IC50≤20 μM and “C”: IC50>20 μM

T1 sequence (J9SQF3 1-1709 isoform J9SQF3-12): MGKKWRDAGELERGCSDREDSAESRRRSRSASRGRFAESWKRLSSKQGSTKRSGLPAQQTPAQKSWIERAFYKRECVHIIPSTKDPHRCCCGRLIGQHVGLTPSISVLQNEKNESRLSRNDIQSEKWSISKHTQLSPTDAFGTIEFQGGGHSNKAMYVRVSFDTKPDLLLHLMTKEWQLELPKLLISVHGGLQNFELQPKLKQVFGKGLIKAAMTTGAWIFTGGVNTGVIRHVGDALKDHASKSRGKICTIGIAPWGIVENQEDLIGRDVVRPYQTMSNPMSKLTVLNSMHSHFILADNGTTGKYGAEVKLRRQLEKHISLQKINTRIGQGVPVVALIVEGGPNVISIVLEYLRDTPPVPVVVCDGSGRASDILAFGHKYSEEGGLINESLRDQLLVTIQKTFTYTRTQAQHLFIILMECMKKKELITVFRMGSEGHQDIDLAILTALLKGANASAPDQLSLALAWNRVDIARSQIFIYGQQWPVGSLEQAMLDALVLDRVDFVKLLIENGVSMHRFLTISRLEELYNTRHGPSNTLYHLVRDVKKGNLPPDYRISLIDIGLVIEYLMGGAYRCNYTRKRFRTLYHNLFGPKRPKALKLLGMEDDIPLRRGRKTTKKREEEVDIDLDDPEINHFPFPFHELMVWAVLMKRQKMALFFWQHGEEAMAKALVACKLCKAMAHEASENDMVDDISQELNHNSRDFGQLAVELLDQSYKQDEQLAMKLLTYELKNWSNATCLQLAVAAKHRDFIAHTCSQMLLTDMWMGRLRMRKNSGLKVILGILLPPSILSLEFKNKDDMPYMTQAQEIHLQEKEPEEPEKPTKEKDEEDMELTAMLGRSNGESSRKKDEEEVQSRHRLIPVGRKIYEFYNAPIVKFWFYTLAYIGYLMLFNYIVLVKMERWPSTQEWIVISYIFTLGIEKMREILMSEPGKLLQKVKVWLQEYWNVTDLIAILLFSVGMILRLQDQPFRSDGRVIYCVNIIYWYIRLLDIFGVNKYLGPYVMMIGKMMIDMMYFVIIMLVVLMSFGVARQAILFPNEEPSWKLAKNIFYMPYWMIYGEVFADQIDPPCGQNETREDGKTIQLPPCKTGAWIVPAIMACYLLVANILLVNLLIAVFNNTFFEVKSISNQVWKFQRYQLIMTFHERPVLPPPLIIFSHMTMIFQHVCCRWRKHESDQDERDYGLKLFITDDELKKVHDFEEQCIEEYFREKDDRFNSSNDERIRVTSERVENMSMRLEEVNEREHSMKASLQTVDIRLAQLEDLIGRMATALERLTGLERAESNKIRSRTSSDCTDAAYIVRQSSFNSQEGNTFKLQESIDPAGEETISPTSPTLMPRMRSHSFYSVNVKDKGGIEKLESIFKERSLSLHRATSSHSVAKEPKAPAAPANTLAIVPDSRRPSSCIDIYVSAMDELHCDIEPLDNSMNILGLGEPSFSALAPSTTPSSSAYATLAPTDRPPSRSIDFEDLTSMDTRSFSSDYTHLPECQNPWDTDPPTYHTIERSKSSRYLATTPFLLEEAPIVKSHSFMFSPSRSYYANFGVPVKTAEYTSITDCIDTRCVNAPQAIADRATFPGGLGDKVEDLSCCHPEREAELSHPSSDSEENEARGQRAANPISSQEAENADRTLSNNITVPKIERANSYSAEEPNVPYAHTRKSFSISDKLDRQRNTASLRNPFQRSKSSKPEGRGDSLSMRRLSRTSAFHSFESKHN

Which IC50 does the source give for Cc1ncsc1COc1cc2c(C(=O)NC(C)C(N)=O)c(C)oc2cn1 (single isomer, unassigned) [Cpd 005-En1, 2-({2-methyl-5-[(4-methyl-1,3-thiazol-5-yl)methoxy]furo[2,3-c]pyridin-3-yl}formamido)propanamide] here?
The IC50 was 1000 to 20000 nM.

For Cc1ncsc1COc1cc2c(C(=O)NC(C)C(N)=O)c(C)oc2cn1 (single isomer, unassigned) [Cpd 005-En2, 2-({2-methyl-5-[(4-methyl-1,3-thiazol-5-yl)methoxy]furo[2,3-c]pyridin-3-yl}formamido)propanamide], which IC50 is on record?
Its IC50 is > 20000 nM.

With Cc1oc2cnc(OCc3ccccn3)cc2c1C(=O)NC(C)C(N)=O (single isomer, unassigned) [Cpd 006 _ En1, 2-({2-methyl-5-[(pyridin-2-yl)methoxy]furo[2,3-c]pyridin-3-yl}formamido)propanamide] as the molecule, how does the IC50 read?
The IC50 was 1000 to 20000 nM.

How did the IC50 turn out when Cc1oc2cnc(OCc3ccccn3)cc2c1C(=O)NC(C)C(N)=O (single isomer, unassigned) [Cpd 006 _ En2, 2-({2-methyl-5-[(pyridin-2-yl)methoxy]furo[2,3-c]pyridin-3-yl}formamido)propanamide] was run?
Its IC50 is 1000 to 20000 nM.

Which IC50 does the source give for Cc1oc2cnc(OCc3ccccc3F)cc2c1C(=O)NC(CO)C(N)=O (single isomer, unassigned) [Cpd 008-En1, 2-({5-[(2-fluorophenyl)methoxy]-2-methylfuro[2,3-c]pyridin-3-yl}formamido)-3-hydroxypropanamide] here?
Its IC50 is 1000 to 20000 nM.

How did the IC50 turn out when Cc1oc2cnc(OCc3ccccc3F)cc2c1C(=O)NC(CO)C(N)=O (single isomer, unassigned) [Cpd 008-En2, 2-({5-[(2-fluorophenyl)methoxy]-2-methylfuro[2,3-c]pyridin-3-yl}formamido)-3-hydroxypropanamide] was run?
The IC50 was < 1000 nM.

With Cc1oc2cnc(OCc3ccccc3F)cc2c1C(=O)NC(C)C(N)=O (single isomer, unassigned) [Cpd 009-En1, 2-({5-[(2-fluorophenyl)methoxy]-2-methylfuro[2,3-c]pyridin-3-yl}formamido)propanamide] as the molecule, how does the IC50 read?
The IC50 was 1000 to 20000 nM.

Cc1oc2cnc(OCc3ccccc3F)cc2c1C(=O)NC(C)C(N)=O (single isomer, unassigned) [Cpd 009-En2, 2-({5-[(2-fluorophenyl)methoxy]-2-methylfuro[2,3-c]pyridin-3-yl}formamido)propanamide] was tested. Which IC50 did it give?
The IC50 was 1000 to 20000 nM.

Which IC50 does the source give for Cc1ncsc1COc1cc2c(C(=O)NC(CO)C(N)=O)c(C)oc2cn1 (single isomer, unassigned) [Cpd 013-En1, 3-hydroxy-2-({2-methyl-5-[(4-methyl-1,3-thiazol-5-yl)methoxy]furo[2,3-c]pyridin-3-yl}formamido)propanamide] here?
The IC50 was > 20000 nM.

Cc1ncsc1COc1cc2c(C(=O)NC(CO)C(N)=O)c(C)oc2cn1 (single isomer, unassigned) [Cpd 013-En2, 3-hydroxy-2-({2-methyl-5-[(4-methyl-1,3-thiazol-5-yl)methoxy]furo[2,3-c]pyridin-3-yl}formamido)propanamide] was tested. Which IC50 did it give?
Its IC50 is < 1000 nM.

Which IC50 does the source give for Cc1oc2cnc(OCc3ccccn3)cc2c1C(=O)NC(CO)C(N)=O (single isomer, unassigned) [Cpd 014-En1, 3-hydroxy-2-({2-methyl-5-[(pyridin-2-yl)methoxy]furo[2,3-c]pyridin-3-yl}formamido)propanamide] here?
Its IC50 is 1000 to 20000 nM.

Cc1oc2cnc(OCc3ccccn3)cc2c1C(=O)NC(CO)C(N)=O (single isomer, unassigned) [Cpd 014-En2, 3-hydroxy-2-({2-methyl-5-[(pyridin-2-yl)methoxy]furo[2,3-c]pyridin-3-yl}formamido)propanamide] was tested. Which IC50 did it give?
The IC50 was < 1000 nM.

Which IC50 does the source give for Cc1oc2cnc(OCc3ccccc3)cc2c1C(=O)NC1CNCC1(F)F (single isomer, unassigned) [Cpd 015-En1, 5-(benzyloxy)-N-(4,4-difluoropyrrolidin-3-yl)-2-methylfuro[2,3-c]pyridine-3-carboxamide] here?
Its IC50 is > 20000 nM.

For Cc1oc2cnc(OCc3ccccc3)cc2c1C(=O)NC1CNCC1(F)F (single isomer, unassigned) [Cpd 015-En2, 5-(benzyloxy)-N-(4,4-difluoropyrrolidin-3-yl)-2-methylfuro[2,3-c]pyridine-3-carboxamide], which IC50 is on record?
The IC50 was < 1000 nM.

Which IC50 does the source give for Cc1oc2cnc(OCc3ccccc3F)cc2c1C(=O)NC1CCN(CCO)C1=O (single isomer, unassigned) [Cpd 017-En1, 5-[(2-fluorophenyl)methoxy]-N-[1-(2-hydroxyethyl)-2-oxopyrrolidin-3-yl]-2-methylfuro[2,3-c]pyridine-3-carboxamide] here?
Its IC50 is 1000 to 20000 nM.

Cc1oc2cnc(OCc3ccccc3F)cc2c1C(=O)NC1CCN(CCO)C1=O (single isomer, unassigned) [Cpd 017-En2, 5-[(2-fluorophenyl)methoxy]-N-[1-(2-hydroxyethyl)-2-oxopyrrolidin-3-yl]-2-methylfuro[2,3-c]pyridine-3-carboxamide] was tested. Which IC50 did it give?
Its IC50 is 1000 to 20000 nM.

With Cc1ncsc1COc1cc2c(C(=O)NC3CNCC3(F)F)c(C)oc2cn1 (single isomer, unassigned) [Cpd 021-En1, N-(4,4-difluoropyrrolidin-3-yl)-2-methyl-5-[(4-methyl-1,3-thiazol-5-yl)methoxy]furo[2,3-c]pyridine-3-carboxamide] as the molecule, how does the IC50 read?
Its IC50 is < 1000 nM.

How did the IC50 turn out when Cc1ncsc1COc1cc2c(C(=O)NC3CNCC3(F)F)c(C)oc2cn1 (single isomer, unassigned) [Cpd 021-En2, N-(4,4-difluoropyrrolidin-3-yl)-2-methyl-5-[(4-methyl-1,3-thiazol-5-yl)methoxy]furo[2,3-c]pyridine-3-carboxamide] was run?
The IC50 was > 20000 nM.

With Cc1ncc(COc2cc3c(C(=O)N[C@@H](CO)C(N)=O)c(C)oc3cn2)s1 [Cpd 001, (2S)-3-hydroxy-2-({2-methyl-5-[(2-methyl-1,3-thiazol-5-yl)methoxy]furo[2,3-c]pyridin-3-yl}formamido)propanamide] as the molecule, how does the IC50 read?
The IC50 was 1000 to 20000 nM.

Which IC50 does the source give for Cc1oc2cnc(OCc3ccccc3F)cc2c1C(=O)N[C@H](C(N)=O)[C@@H](C)O [Cpd 002, (2S,3R)-2-({5-[(2-fluorophenyl)methoxy]-2-methylfuro[2,3-c]pyridin-3-yl}formamido)-3-hydroxybutanamide] here?
Its IC50 is < 1000 nM.

Which IC50 does the source give for Cc1ncc(COc2cc3c(C(=O)N[C@H](C(N)=O)[C@@H](C)O)c(C)oc3cn2)s1 [Cpd 003, (2S,3R)-3-hydroxy-2-({2-methyl-5-[(2-methyl-1,3-thiazol-5-yl)methoxy]furo[2,3-c]pyridin-3-yl}formamido)butanamide] here?
Its IC50 is 1000 to 20000 nM.

How did the IC50 turn out when Cc1ncsc1COc1cc2c(C(=O)N[C@H](C(N)=O)[C@@H](C)O)c(C)oc2cn1 [Cpd 004, (2S,3R)-3-hydroxy-2-({2-methyl-5-[(4-methyl-1,3-thiazol-5-yl)methoxy]furo[2,3-c]pyridin-3-yl}formamido)butanamide] was run?
The IC50 was < 1000 nM.

Cc1oc2cnc(OCc3ccccc3F)cc2c1C(=O)NC(C)(C)C(N)=O [Cpd 007, 2-({5-[(2-fluorophenyl)methoxy]-2-methylfuro[2,3-c]pyridin-3-yl}formamido)-2-methylpropanamide] was tested. Which IC50 did it give?
The IC50 was 1000 to 20000 nM.

Which IC50 does the source give for Cc1oc2cnc(OCc3ccccc3)cc2c1C(=O)NC(C)C(N)=O (stereo not shown) [Cpd 010-Enl, 2-{[5-(benzyloxy)-2-methylfuro[2,3-c]pyridin-3-yl]formamido}propanamide] here?
The IC50 was 1000 to 20000 nM.

Cc1ncsc1COc1cc2c(C(=O)NC(C)(C)C(N)=O)c(C)oc2cn1 [Cpd 011, 2-methyl-2-({2-methyl-5-[(4-methyl-1,3-thiazol-5-yl)methoxy]furo[2,3-c]pyridin-3-yl}formamido)propanamide] was tested. Which IC50 did it give?
Its IC50 is 1000 to 20000 nM.
